# Entries after “also recorded” stand apart in the source; their conditions may differ. Read-outs that look alike come from different tables or passages of the source.
# What was measured:
# [1] = passage of the blood-brain barrier, IP study: brain extract concentration by HPLC-MS/MS; format: in vivo, Rj Orl: SWISS mice; conditions: for concentration at 2 h: male, Rj Orl: SWISS, mouse, brain extract, ip, 70 mg/kg, IP 70 mg/kg, ± SEM
# Procedure: Male Rj Orl: SWISS, mice, approximately 5 weeks old and weighing between 20 and 24 g at arrival (R Janvier Breeding Center, France) were kept in the animal room at constant temperature (22±1° C.) and controlled humidity (55±20%), with a 12-hour light/dark cycle (8:00 a.m.-8:00 p.m.). During the acclimation and study period, the mice had free access to food and water. All the experiments were conducted in compliance with the conditions of decree 2001-464 of May 29, 2001 relative to animal experimentation.
# Two treatment modes were used: intraperitoneal (IP) administration for 1 or 2 days or oral or per os administration for 5 days.
# The solution of compound 4bc to be injected at a concentration of 7.0 g/L was prepared in a carrier containing 10% Tween 20+20% DMSO+70% 0.9% NaCl in water.
# Three animal groups were created: • mice who received the carrier by IP at 10 mL/kg (Group V, n=2), • mice treated with compound 4bc by IP at 70 mg/kg and at 10 mL/kg (Group T, n=6), • one untreated mouse that was used as a […] control during analysis.
# Treated mice T2 and T3 received treatments as follows:
# Treated mice T1, T4, T5 and T6 as well as the mice receiving the carrier V1 and V2 received the treatments/carriers as follows:
# The mice were anesthetized by an injection of 0.1 mL of a 6% sodium pentobarbital solution and then the mice were infused to eliminate the compound present in the plasma with a 0.9% NaCl solution containing heparin (200 μL of heparin choay to 5000 IU/mL in one liter of 0.9% NaCl). Each animal was infused with a minimum of 50 mL of this solution. The mouse was then decerebrated and the cerebellum, brainstem and olfactory bulbs were removed by dissection.
# For the IP study, the brain was dissected into two parts (right and left hemisphere).
# Each mouse brain sample treated with compound 4bc was weighed, placed in MeOH (100 μl MeOH per 10 mg of brain tissue) and then mixed by sonication. The suspensions thus obtained were centrifuged at 14,000 g for 7 minutes at 4° C. for IP or at 27,000 g for 10 minutes, at 4° C. for oral administration. The supernatants, diluted by half in MeOH, were transferred into HPLC vials for analysis of the presence of compound 4bc by HPLC-MS/MS.
# Detection and quantification, based on peak area, were done by HPLC-MS/MS in MRM mode.
# The HPLC system was composed of a Dionex Ultimate 3000 pump equipped with a Dionex WPS-3000PL automatic sample injector. The mass spectrometer used is a Water-Micromass Quattro Ultima equipped with an electrospray ionization source and a triple quadrupole analyzer. Data was acquired and analyzed by Masslynx 3.5.
# Liquid chromatography was performed in isocratic mode with a Nucleodur™ (Macherey-Nagel) C18, 125×2.1 mm column with a particle size of 5.0 μm. The mobile phase was composed of a mixture of two phases A and B, in a proportion of 30/70. Phase A was composed of 1% acetic acid in water (v/v). Phase B was composed of 1% acetic acid in MeOH (v/v). The flow rate was set at 0.2 mL/min; the injection volume was 5 μl.
# The mass spectrometer was connected to the HPLC system by using an electrospray ionization source. A switching valve was programmed before injection of the sample for rinsing and equilibration of the capillary, so as to prevent any accumulation of salt in the source capillary. The capillary voltage was set at 4000 V and the cone voltage at 80 V; the source temperature was set at 120° C.; the desolvation gas (N2) was set at a flow rate of 529 and the temperature at 350° C. The mass spectra were obtained in positive mode. The parameters were optimized to obtain the maximum molecular ion ([M+H]^+) at m/z 236.41, corresponding to compound 4bc. Collision was done by argon and the energy was set at 30 eV in MS/MS mode for detecting mass transitions: m/z 236.41→117.08; 236.41→131.10 and 236.41→158.27.
# [2] = test system: dopaminergic neurons (TH+) of rat embryo ventral midbrain culture; experiment: neuritogenic activity: neurite outgrowth per cell / differentiation of TH+ neurons; format: cell-based
# Procedure: Quinoxaline derivatives were tested on a dopaminergic neuron spontaneous degeneration model in culture according to the protocol described in the article by F. Schmidt et al. […] This model consists of culturing rat embryo ventral midbrain. This part of the brain in culture contains a proportion of dopaminergic neurons of 5% of the total neurons; the other neurons are mainly GABAergic. These cultures are also composed of glial cells, i.e., astrocytes, oligodendrocytes and microglia. These cultures are characterized by progressive neuron death. […] To assess the neuritogenic activity of compounds according to the invention, neurite outgrowth per cell was quantified using the Neurite Outgrowth software developed by Xplora Nova. At least 60 neurons per condition were photographed and studied.
# [3] = test system: dopaminergic neurons (TH+) of rat embryo ventral midbrain culture; experiment: dopaminergic neuron spontaneous degeneration model in culture, TH+ neuron count after 8 days (Schmidt et al. protocol); format: cell-based
# Procedure: Quinoxaline derivatives were tested on a dopaminergic neuron spontaneous degeneration model in culture according to the protocol described in the article by F. Schmidt et al. […] This model consists of culturing rat embryo ventral midbrain. This part of the brain in culture contains a proportion of dopaminergic neurons of 5% of the total neurons; the other neurons are mainly GABAergic. These cultures are also composed of glial cells, i.e., astrocytes, oligodendrocytes and microglia. These cultures are characterized by progressive neuron death.
# [4] = toxicity: animal weight monitoring during per os treatment; format: in vivo
# Procedure: Three groups were created: • mice who received the carrier orally at 10 mL/kg (Group V, n=4), • mice treated with compound 4bc orally at 150 mg/kg and at 10 mL/kg (Group T, n=6), • control mice who received no treatment (n=2). All the mice were treated or received the carrier twice daily for 4 days. On the 5th day, a last treatment was administered and the animals were euthanized between […]. after this last treatment according to the following plan:
# The animals were weighed every day throughout the sub-chronic study in order to monitor their general condition. Animal weights were considered a good indicator of general health since a compound's toxicity is known to be characterized by loss of bodyweight over time.
smiles,measurement,setting,value
Cc1nc2ccc(N)cc2nc1-c1ccccc1 [Compound 4bc],brain extracts at 4-6 h less concentrated than at 2 h post-treatment,[1]; IP,2000 times
same,elimination from the brain over time,[1]; IP,eliminated quickly from the brain
same,mean value of extracts analyzed later lower than previously calculated (ratio of the means),"[1]; IP, 2 h brain extracts, stored at 4° C.",approximately 6 times
same,detection in old brain extracts,"[1]; IP, euthanized between 4 and 6 h after the last treatment, extracts stored 40 days at 4° C., n=8",detectable
same,crossing of the blood brain barrier in vivo,[1]; intraperitoneal administration,able to cross the blood brain barrier
same,concentration at 2 h,"[1]; euthanized 2 h after last treatment, extracts stored 40 days at 4° C., n=4, read-out: mean concentration in old brain extracts",1390 ng/mL
same,concentration at 2 h,"[1]; euthanized 2 h after the last treatment, n=3, read-out: mean concentration in brain extract",8830 ng/mL
same,"TH+ neuron differentiation / neuritogenic effect (in words, FIG. 1)","[2]; 100 nM, versus negative control",significant increase; also recorded: longer and more numerous neurite extensions
same,activity at 0.1 µM,"[2]; Rattus norvegicus, Neuron, compound at 100 nM, read-out: Diff in % of control ± SEM",142%
same,activity on survival of dopaminergic neurons (in words),"[3]; 100 nM, compared with dbcAMP",nearly equal to the one induced by dbcAMP
same,activity at 0.1 µM,"[3]; Rattus norvegicus, Neuron, 192 h, compound at 100 nM, 8 days of culture, read-out: TH+ neurons in % of control ± SEM",140%
same,adverse reactions,"[4]; oral, 300 mg/kg/day over a 5-day treatment",without adverse reactions
same,toxicity from animal weight gain,"[4]; per os, 300 mg/kg/day, 5 days",absence of significant toxicity

# Source: patent US9434701B2, “Aminoquinoxaline derivatives for treatment of neurodegenerative diseases” (CENTRE NATIONAL DE LA RECHERCHE SCIENTIFIQUE (CNRS), priority 2011, dated 2016)
